Assay results from PubChem BioAssay AID743137 (The Scripps Research Institute Molecular Screening Center, 2013).
Activity calls are given as the source filed them.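 Rule for the calls: active = LYPLA1 and LYPLA2 each at a ratio of 0.5 or below, with under two anti-target hydrolases also at that level; inactive = the rest.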

Columns and labels:
Test in all cases: SILAC ABPP off-target profiling in HeLa cells – cell-based, LC-MS, powders, selectivity assay for LYPLA1/LYPLA2 inhibitor project, late-stage follow-up (AID 743137)
[1] = target: Lysosomal phospholipase A and acyltransferase (Homo sapiens) (UniProt Q8NCC3); conditions: FP-biotin LC-MS, serine hydrolase panel, PLA2G15, at 1 µM, hits give low values
[2] = target: Platelet-activating factor acetylhydrolase IB subunit alpha1 (Homo sapiens) (UniProt Q15102); conditions: FP-biotin LC-MS, serine hydrolase panel, PAFAH1B3, at 1 µM, hits give low values
[3] = target: Acylamino-acid-releasing enzyme (Homo sapiens) (UniProt P13798); conditions: FP-biotin LC-MS, serine hydrolase panel, APEH, at 1 µM, hits give low values
[4] = target: Lysosomal Pro-X carboxypeptidase (Homo sapiens) (UniProt P42785); conditions: FP-biotin LC-MS, serine hydrolase panel, PRCP, at 1 µM, hits give low values
ESD = conditions: FP-biotin LC-MS, serine hydrolase panel, at 1 µM, hits give low values
[5] = target: Platelet-activating factor acetylhydrolase IB subunit alpha2 (Homo sapiens) (UniProt P68402); conditions: FP-biotin LC-MS, serine hydrolase panel, PAFAH1B2, at 1 µM, hits give low values
[6] = target: Prolyl endopeptidase-like (Homo sapiens) (UniProt Q4J6C6); conditions: FP-biotin LC-MS, serine hydrolase panel, PREPL, at 1 µM, hits give low values
[7] = target: Acyl-coenzyme A thioesterase 2, mitochondrial (Homo sapiens) (UniProt P49753); conditions: FP-biotin LC-MS, serine hydrolase panel, ACOT2, at 1 µM, hits give low values
FAM111B = FAM111B (UniProt Q6SJ93); conditions: FP-biotin LC-MS, serine hydrolase panel, at 1 µM, hits give low values
NCEH1 = conditions: FP-biotin LC-MS, serine hydrolase panel, at 1 µM, hits give low values
[8] = target: Acyl-protein thioesterase 1 (Homo sapiens) (UniProt O75608); conditions: FP-biotin LC-MS, serine hydrolase panel, LYPLA1, at 1 µM, hits give low values
MAGL (MGLL) = conditions: FP-biotin LC-MS, serine hydrolase panel, at 1 µM, hits give low values
ABHD10 = conditions: FP-biotin LC-MS, serine hydrolase panel, at 1 µM, hits give low values
[9] = target: sn-1-specific diacylglycerol lipase ABHD11 (Homo sapiens) (UniProt Q8NFV4); conditions: FP-biotin LC-MS, serine hydrolase panel, at 1 µM, hits give low values
LYPLAL1 = conditions: FP-biotin LC-MS, serine hydrolase panel, at 1 µM, hits give low values
SCPEP1 = conditions: FP-biotin LC-MS, serine hydrolase panel, at 1 µM, hits give low values
[10] = target: Platelet-activating factor acetylhydrolase 2, cytoplasmic (Homo sapiens) (UniProt Q99487); conditions: FP-biotin LC-MS, serine hydrolase panel, PAFAH2, at 1 µM, hits give low values
ABHD12 = conditions: FP-biotin LC-MS, serine hydrolase panel, at 1 µM, hits give low values
[11] = target: Prolyl endopeptidase FAP (Homo sapiens) (UniProt Q12884); conditions: FP-biotin LC-MS, serine hydrolase panel, at 1 µM, hits give low values
PNPLA6 = conditions: FP-biotin LC-MS, serine hydrolase panel, at 1 µM, hits give low values
ABHD6 = conditions: FP-biotin LC-MS, serine hydrolase panel, at 1 µM, hits give low values
[12] = target: Lysosomal protective protein (Homo sapiens) (UniProt P10619); conditions: FP-biotin LC-MS, serine hydrolase panel, CTSA, at 1 µM, hits give low values
[13] = target: Acyl-protein thioesterase 2 (Homo sapiens) (UniProt O95372); conditions: FP-biotin LC-MS, serine hydrolase panel, LYPLA2, at 1 µM, hits give low values
PNPLA4 = PNPLA4 (UniProt P41247); conditions: FP-biotin LC-MS, serine hydrolase panel, at 1 µM, hits give low values
FAM108B1 = conditions: FP-biotin LC-MS, serine hydrolase panel, at 1 µM, hits give low values
[14] = target: Dipeptidyl peptidase 8 (Homo sapiens) (UniProt Q6V1X1); conditions: FP-biotin LC-MS, serine hydrolase panel, DPP8, at 1 µM, hits give low values

Chain of Acyl-protein thioesterase 2 (Homo sapiens) (O95372 whole entry, looked up): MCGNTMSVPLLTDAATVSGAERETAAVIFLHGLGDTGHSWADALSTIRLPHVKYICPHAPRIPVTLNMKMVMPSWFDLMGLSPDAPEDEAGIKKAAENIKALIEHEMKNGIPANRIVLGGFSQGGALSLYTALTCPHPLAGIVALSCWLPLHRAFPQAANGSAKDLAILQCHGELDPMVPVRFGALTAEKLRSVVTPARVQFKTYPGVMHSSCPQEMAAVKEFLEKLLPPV
Chain of Acyl-coenzyme A thioesterase 2, mitochondrial (Homo sapiens) (P49753 whole entry, looked up): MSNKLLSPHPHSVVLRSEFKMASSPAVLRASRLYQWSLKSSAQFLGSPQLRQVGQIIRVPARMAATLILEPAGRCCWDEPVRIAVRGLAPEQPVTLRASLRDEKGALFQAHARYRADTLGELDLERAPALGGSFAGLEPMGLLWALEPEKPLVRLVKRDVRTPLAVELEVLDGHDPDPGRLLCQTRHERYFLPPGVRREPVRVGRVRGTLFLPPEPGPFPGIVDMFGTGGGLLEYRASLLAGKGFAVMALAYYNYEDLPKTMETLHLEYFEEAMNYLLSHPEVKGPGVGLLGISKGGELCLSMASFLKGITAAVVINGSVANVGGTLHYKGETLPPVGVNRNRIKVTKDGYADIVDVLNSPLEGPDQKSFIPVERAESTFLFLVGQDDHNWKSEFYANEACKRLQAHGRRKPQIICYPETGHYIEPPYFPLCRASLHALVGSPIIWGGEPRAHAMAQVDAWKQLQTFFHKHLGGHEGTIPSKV
Chain of Platelet-activating factor acetylhydrolase IB subunit alpha2 (Homo sapiens) (P68402 whole entry, looked up): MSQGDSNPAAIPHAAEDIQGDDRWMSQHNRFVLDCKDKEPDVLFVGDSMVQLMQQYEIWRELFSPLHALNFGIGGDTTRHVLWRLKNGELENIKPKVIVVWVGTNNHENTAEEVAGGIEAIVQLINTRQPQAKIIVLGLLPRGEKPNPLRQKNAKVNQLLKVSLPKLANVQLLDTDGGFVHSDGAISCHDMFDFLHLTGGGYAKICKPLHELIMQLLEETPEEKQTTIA
Chain of PNPLA4 (P41247 whole entry, looked up): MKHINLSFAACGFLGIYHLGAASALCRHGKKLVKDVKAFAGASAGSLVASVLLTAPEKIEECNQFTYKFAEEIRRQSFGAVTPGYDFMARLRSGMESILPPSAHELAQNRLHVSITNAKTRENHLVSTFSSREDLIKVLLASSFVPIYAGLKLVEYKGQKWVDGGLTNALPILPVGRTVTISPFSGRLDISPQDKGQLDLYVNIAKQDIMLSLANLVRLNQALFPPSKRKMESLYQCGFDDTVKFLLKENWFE
Chain of sn-1-specific diacylglycerol lipase ABHD11 (Homo sapiens) (Q8NFV4 whole entry, looked up): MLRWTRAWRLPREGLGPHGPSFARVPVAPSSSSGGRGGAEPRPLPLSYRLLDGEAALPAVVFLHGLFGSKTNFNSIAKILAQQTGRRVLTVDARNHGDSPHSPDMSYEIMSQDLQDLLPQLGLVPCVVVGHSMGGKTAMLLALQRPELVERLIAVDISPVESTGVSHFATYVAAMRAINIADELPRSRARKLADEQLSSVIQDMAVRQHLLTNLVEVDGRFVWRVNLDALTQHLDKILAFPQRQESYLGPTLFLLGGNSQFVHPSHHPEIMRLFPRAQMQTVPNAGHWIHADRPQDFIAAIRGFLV
Chain of Lysosomal phospholipase A and acyltransferase (Homo sapiens) (Q8NCC3 whole entry, looked up): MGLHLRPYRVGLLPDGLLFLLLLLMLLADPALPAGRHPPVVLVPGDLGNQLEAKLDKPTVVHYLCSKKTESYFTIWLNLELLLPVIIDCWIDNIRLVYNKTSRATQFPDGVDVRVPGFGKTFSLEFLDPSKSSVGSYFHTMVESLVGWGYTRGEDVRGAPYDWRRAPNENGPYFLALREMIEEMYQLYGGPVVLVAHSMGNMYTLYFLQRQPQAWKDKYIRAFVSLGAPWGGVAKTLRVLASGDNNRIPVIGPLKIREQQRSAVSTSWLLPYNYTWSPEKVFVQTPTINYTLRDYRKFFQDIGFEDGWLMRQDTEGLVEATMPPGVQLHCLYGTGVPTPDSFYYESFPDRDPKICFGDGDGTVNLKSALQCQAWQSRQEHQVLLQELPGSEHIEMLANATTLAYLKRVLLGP
Chain of Lysosomal Pro-X carboxypeptidase (Homo sapiens) (P42785 whole entry, looked up): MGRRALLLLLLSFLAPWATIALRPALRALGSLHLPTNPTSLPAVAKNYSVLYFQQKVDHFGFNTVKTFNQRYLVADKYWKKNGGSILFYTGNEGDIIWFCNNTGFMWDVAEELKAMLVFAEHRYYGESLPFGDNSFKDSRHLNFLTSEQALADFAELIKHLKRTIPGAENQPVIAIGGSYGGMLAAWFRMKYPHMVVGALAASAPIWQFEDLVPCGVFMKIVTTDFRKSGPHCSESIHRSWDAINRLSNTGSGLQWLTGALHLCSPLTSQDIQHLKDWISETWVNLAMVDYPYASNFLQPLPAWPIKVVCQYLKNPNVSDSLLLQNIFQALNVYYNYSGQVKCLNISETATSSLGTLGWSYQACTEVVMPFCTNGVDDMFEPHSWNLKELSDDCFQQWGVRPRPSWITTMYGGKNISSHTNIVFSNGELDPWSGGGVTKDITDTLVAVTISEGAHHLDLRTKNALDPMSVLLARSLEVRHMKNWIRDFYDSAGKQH
Chain of Acyl-protein thioesterase 1 (Homo sapiens) (O75608 whole entry, looked up): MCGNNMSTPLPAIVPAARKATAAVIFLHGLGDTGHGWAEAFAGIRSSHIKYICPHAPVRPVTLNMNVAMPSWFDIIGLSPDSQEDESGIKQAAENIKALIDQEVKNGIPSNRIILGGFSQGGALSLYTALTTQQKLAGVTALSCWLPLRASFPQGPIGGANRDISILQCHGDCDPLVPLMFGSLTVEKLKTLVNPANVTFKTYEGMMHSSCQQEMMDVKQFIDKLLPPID
Chain of FAM111B (Q6SJ93 whole entry, looked up): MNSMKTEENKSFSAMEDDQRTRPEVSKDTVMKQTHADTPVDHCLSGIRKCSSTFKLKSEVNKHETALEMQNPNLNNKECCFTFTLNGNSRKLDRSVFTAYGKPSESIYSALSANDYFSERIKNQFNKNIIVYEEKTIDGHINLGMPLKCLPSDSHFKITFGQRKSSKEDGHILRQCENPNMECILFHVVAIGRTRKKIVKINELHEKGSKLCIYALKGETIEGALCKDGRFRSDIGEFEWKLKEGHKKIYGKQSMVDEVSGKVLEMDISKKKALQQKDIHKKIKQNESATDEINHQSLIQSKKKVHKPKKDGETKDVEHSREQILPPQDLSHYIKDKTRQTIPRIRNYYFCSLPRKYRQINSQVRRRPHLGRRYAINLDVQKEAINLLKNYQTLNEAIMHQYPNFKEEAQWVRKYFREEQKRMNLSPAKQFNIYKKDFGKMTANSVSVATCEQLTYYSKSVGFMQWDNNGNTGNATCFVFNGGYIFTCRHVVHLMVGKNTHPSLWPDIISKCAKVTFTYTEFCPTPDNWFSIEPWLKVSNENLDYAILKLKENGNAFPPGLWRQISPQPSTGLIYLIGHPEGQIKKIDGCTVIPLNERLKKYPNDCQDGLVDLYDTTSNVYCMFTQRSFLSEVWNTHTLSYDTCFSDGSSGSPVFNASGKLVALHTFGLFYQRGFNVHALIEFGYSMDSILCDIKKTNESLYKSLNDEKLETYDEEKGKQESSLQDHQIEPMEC
Chain of Acylamino-acid-releasing enzyme (Homo sapiens) (P13798 whole entry, looked up): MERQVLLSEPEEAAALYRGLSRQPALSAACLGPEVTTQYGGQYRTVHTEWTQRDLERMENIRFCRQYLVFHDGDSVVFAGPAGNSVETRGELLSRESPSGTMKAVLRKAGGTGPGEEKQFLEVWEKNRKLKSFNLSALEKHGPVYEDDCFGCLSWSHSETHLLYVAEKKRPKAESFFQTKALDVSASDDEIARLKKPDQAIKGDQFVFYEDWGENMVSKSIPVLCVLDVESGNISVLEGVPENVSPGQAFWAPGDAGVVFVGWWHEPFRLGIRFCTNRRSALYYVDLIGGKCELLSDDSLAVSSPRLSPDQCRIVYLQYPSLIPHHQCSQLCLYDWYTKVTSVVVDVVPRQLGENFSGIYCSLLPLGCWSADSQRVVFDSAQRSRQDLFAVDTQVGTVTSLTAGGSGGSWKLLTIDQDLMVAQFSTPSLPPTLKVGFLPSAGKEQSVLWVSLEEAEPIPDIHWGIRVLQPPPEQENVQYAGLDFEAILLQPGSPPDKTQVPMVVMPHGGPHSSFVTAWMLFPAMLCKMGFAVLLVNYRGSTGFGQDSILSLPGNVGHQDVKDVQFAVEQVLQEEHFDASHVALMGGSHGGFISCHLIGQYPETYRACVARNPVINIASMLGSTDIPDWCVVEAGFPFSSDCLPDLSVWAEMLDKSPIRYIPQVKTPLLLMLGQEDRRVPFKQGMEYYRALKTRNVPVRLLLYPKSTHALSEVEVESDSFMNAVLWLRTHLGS
Chain of Lysosomal protective protein (Homo sapiens) (P10619 whole entry, looked up): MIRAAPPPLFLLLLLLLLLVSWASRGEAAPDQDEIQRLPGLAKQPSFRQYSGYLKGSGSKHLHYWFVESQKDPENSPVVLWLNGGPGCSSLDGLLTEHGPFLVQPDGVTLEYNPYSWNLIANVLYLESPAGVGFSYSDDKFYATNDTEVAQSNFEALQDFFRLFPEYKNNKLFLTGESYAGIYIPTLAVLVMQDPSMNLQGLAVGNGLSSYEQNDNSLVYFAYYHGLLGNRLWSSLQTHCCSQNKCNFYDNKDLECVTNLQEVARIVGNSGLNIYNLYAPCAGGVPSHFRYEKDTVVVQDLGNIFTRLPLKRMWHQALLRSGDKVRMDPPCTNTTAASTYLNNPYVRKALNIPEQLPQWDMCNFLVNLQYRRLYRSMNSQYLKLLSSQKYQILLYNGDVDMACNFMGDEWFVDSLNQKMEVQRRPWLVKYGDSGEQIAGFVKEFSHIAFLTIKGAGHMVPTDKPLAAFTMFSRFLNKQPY
Chain of Platelet-activating factor acetylhydrolase IB subunit alpha1 (Homo sapiens) (Q15102 whole entry, looked up): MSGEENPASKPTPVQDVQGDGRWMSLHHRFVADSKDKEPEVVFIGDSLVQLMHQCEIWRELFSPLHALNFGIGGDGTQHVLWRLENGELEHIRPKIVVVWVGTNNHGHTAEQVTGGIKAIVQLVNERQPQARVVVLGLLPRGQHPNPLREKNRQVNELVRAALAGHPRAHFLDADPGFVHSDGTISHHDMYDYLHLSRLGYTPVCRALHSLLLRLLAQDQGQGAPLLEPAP

In the case of O=C(ON1C(=O)C2CN(C(=O)N3CCOCC3)CCN2C1=O)N1CCC(CCc2ccc(Cl)cc2)CC1 (stereo unspecified), the inhibitor/DMSO ratio [1] was 1.4 (inactive), the inhibitor/DMSO ratio [2] was 1.4 (inactive) and the inhibitor/DMSO ratio [3] was 1.3 (inactive). For the same molecule, the inhibitor/DMSO ratio [4] was 0.93 (inactive), the inhibitor/DMSO ratio (ESD) was 1.2 (inactive) and the inhibitor/DMSO ratio [5] was 1.2 (inactive). The inhibitor/DMSO ratio [6] was 1.5 (inactive), the inhibitor/DMSO ratio [7] was 1.4 (inactive) and the inhibitor/DMSO ratio (FAM111B) was 1.4 (inactive). The inhibitor/DMSO ratio (NCEH1) was 0.98 (inactive), the inhibitor/DMSO ratio [8] was 0.05 and the inhibitor/DMSO ratio (MAGL (MGLL)) was 0.57 (inactive). For the same molecule, the inhibitor/DMSO ratio (ABHD10) was 1.3 (inactive), the inhibitor/DMSO ratio [9] was 1.3 (inactive) and the inhibitor/DMSO ratio (LYPLAL1) was 1.7 (inactive). The inhibitor/DMSO ratio (SCPEP1) was 0.93 (inactive), the inhibitor/DMSO ratio [10] was 1.4 (inactive) and the inhibitor/DMSO ratio (ABHD12) was 0.83 (inactive). For the same molecule, the inhibitor/DMSO ratio [11] was 1 (inactive), the inhibitor/DMSO ratio (PNPLA6) was 1.2 (inactive) and the inhibitor/DMSO ratio (ABHD6) was 0.05. For the same molecule, the inhibitor/DMSO ratio [12] was 1.1 (inactive), the inhibitor/DMSO ratio [13] was 0.084 and the inhibitor/DMSO ratio (PNPLA4) was 1.2 (inactive). The inhibitor/DMSO ratio (FAM108B1) was 0.98 (inactive) and the inhibitor/DMSO ratio [14] was 1.4 (inactive).
